The source of these data is USRE45313E1, “Exendin variant peptides” (priority 1999, dated 2014).

One data set in a line: in vivo. As to the method: Compound 4 (batch No. ZP 7.97-5-F, 4053 g/mol) and Compound (iii) (batch No. ZP 7.73-2-G, 3854 g/mol) were synthesised in-house using the Fmoc strategy.
Plasma (250 μl) was transferred to ice-chilled 0.75 ml PLC vials containing 250 μl extraction solution (MeCN: 0.18 M Ammonium Carbonate pH 9.5, 10:90 v/v). The plasma samples were stored at −20 C until SPE and LC/MS analysis.

Data set [1] is described as follows: In vivo pharmacokinetics after i.v. administration to rabbits. Conditions: iv; for half-life: New Zealand White, rabbit, in vivo, 1000 nmol/kg, iv 1000 nmol/kg, mean. As to the method:
In order to establish whether this effect is sustained in vivo, the pharmacokinetic parameters of the two compounds are examined in rabbits.
Compound 4 (batch No. ZP 7.97-5-F, 4053 g/mol) and Compound (iii) (batch No. ZP 7.73-2-G, 3854 g/mol) were synthesised in-house using the Fmoc strategy. […] The peptides were dissolved in pyrogen free isotonic saline and both peptides were administered i.v. to rabbits and rats using a dose of 1000 nmol/kg.
Fifteen New Zealand White rabbits weighing 2.5 to 3.0 kg were used for the experiment. On the day of the experiment, the rabbits were anaesthetised with Hypnorm® i.m. followed by Dormicum® i.v., Catheters were inserted into the femoral vein and artery for i.v. administration of drugs and arterial blood sampling. The rabbits stayed unconscious throughout the experiment.
Blood samples were collected at t−1, 3, 5, 10, 15, 20, 30, 40, 60, 90, 120, 150, 180, and 240 min. The blood was collected in EDTA containing ice-chilled tubes and immediately centrifuged at 4 C for 5 min (20.000×g). Plasma (250 μl) was transferred to ice-chilled 0.75 ml PLC vials containing 250 μl extraction solution (MeCN: 0.18 M Ammonium Carbonate pH 9.5, 10:90 v/v). The plasma samples were stored at −20 C until SPE and LC/MS analysis.
The drug containing plasma samples (400 μl) are loaded onto OASIS™ HLB (Compound 4) or ISOLUTE™ (Compound (iii)) solid phase extraction columns preconditioned with 950 μl MeCN followed by 950 μl water. The columns are washed with 950 μl 2% TFA in water followed by an equal volume of 2% TFA in MeCN:water (20:78 v/v). The analytes are eluted with 500 μl 2% TFA in MeCN:water (60:38 v/v) and analysed by LC/MS.
The samples were kept at 18 C in the auto sampler tray prior to injection of 20 to 50 μl onto the LC column (Vydac 218MS52 (2.1×250 mm). The separations were performed at 30° C. using a flow rate of 250 μl/min and a gradient according to the table below. Both the test compound and the reference drug are detected by single ion recording (SIR) using the m/z=676.7 and the m/z=1095.2 and 821.8 ion species, respectively. All instrument conditions were controlled by MassLynx software ver. 3.3 software.
The plasma samples were analysed as described under materials and methods and the plasma concentration (Cpl) plotted versus time in a semi log diagram. The plasma concentration were followed for three hours in rabbits, whereas the limited blood volume of rats restricted the blood sampling in this specie to one hour. The Cpl vs. time curves from the individual rabbits were fitted to a two-compartment open model (figure not shown) using 1/y^2 weighted least squares in WinNonlin 3.1 (Pharsight Corp. (Mountain View, Calif.)).
Table 5: The pharmacokinetic constants were obtained from rabbits when the Cpl vs. time curves was fitted mathematically. The compounds were administered iv in a concentration of 1000 nmol/kg. T1/2 values are given in minutes (min) for the a and P phase.

The nature of a further data set: in vitro. Conditions: 37 C, followed for 720 min; for half-life at 10 µg/ml: Sprague-Dawley, rat, heparin-stabilised rat plasma, T½ in rat plasma; for T½ in rat plasma / kobs (degradation rate): heparin stabilised rat plasma. Here is the method: The degradation of the two test compounds and in heparin stabilised rat (Sprague-Dawley) plasma was followed by the combination of solid phase extraction and LC-MS. The degradation was followed for 720 minutes in plasma.
Blank rat plasma in sodium heparin (5000 units/mL) were obtained from Harlan Sera Lab Ltd. (Loughborough, UK).
The LC-MS analysis was performed on an HP 1100 instrument consisting of an on-line degasser, a quaternary gradient pump, an auto sampler, a column oven, Hewlett Packard (Wilmington. Del., U.S.A.) in combination with a Quattro Ultima mass spectrometer from Micromass (Altrincham, UK). Both the LC and MS were controlled by MassLynx 3.3 software. The LC separations prior to MS detection were performed on a Vydac 218MS52 (2.1×250 mm) column (Hesperia, Calif., U.S.A.).
The initial plasma volume was 1000 μl (37° C.). From the initial plasma volume, 100 μl was transferred to a 0.75 ml HPLC vial (used as blank), mixed with 560 μl extraction solution (MeCN:0.18 M ammonium carbonate pH 9.5 (6:94 v/v), 4 C) and extracted by Solid Phase Extraction using ASPEC XL4 Robot. A volume of 100 μl stock solution was added to the remaining 900 μl plasma, mixed thoroughly and incubated at 37 C (corresponding to an initial concentration of 10 μg of the test compounds/ml). At each time point (0.2, 60, 120, 180, 240, 360, 480, 662 and 720 min., respectively) 100 μl of the drug containing plasma was collected, mixed with 560 μl ice cold extraction solution and immediately extracted by SPE as described above. The extracted plasma samples were analysed by LC-MS.
The samples were kept at 18° C. in the autosampler tray prior to injection of 10 μl. The separations were performed at 30° C. on a Vydac 218MS52 (2.1×250 mm) LC column using a linear gradient from 15 to 50% B within 14 min. at a flow rate of 250 μl/min 0.1% formic acid in water was used as mobile phase A and 0.1% formic acid in MeCN as mobile phase B. Compound 4 and Compound (iii) were detected by single ion recording (SIR) using the 6 H+(m/z=676.7) and 4 H+(m/z=822.1) ion species, respectively. The cone voltage for the analysis of compound (iii) and Compound 4 was set to 100 and 70 V respectively. […] The degradation of the two compounds were followed for 720 min and the results were plotted as the natural logarithm of the peak area vs. time.

One may read the half-life as the time needed for the level to fall by half in the phase considered.

In the case of `CC[C@H](C)[C@H](NC(=O)[C@H](Cc1ccccc1)NC(=O)[C@H](CCC(=O)O)NC(=O)[C@H](CCCCN)NC(=O)[C@H](C)NC(=O)[C@H](C)NC(=O)[C@H](CCC(N)=O)NC(=O)CNC(=O)[C@H](CCC(=O)O)NC(=O)[C@H](CC(C)C)NC(=O)[C@H](Cc1ccc(O)cc1)NC(=O)[C@H](CO)NC(=O)[C@H](CO)NC(=O)[C@@H](NC(=O)[C@H](CC(=O)O)NC(=O)[C@H](CO)NC(=O)[C@@H](NC(=O)[C@H](Cc1ccccc1)NC(=O)[C@@H](NC(=O)CNC(=O)[C@H](CCC(=O)O)NC(=O)CNC(=O)[C@@H](N)Cc1cnc[nH]1)[C@@H](C)O)[C@@H](C)O)C(C)C)C(=O)N[C@@H](C)C(=O)N[C@@H](Cc1c[nH]c2ccccc12)C(=O)N[C@@H](CC(C)C)C(=O)N[C@H](C(=O)N[C@@H](CCCCN)C(=O)NCC(=O)N[C@@H](CCCNC(=N)N)C(N)=O)C(C)C` [Compound (iii), reference compound], in the data set “in vivo” (Sprague-Dawley, rat, plasma, 10 nmol/kg), the level at time molar was < 0.5 nM. In data set [1] (T1/2, α), the half-life is 2.3 min. In data set [1] (T1/2, β), this compound returned a half-life of 10.8 min. Further, in the data set “in vitro”, the half-life at 10 µg/ml was 238 min, the “T½ in rat plasma” value was determined as 238.4 min and the “kobs (degradation rate)” value was 0.0029 min⁻¹.
Regarding `CC[C@H](C)[C@H](NC(=O)[C@H](Cc1ccccc1)NC(=O)[C@H](CCC(=O)O)NC(=O)[C@H](CCCCN)NC(=O)[C@H](C)NC(=O)[C@H](C)NC(=O)[C@H](CCC(N)=O)NC(=O)CNC(=O)[C@H](CCC(=O)O)NC(=O)[C@H](CC(C)C)NC(=O)[C@H](Cc1ccc(O)cc1)NC(=O)[C@H](CO)NC(=O)[C@H](CO)NC(=O)[C@@H](NC(=O)[C@H](CC(=O)O)NC(=O)[C@H](CO)NC(=O)[C@@H](NC(=O)[C@H](Cc1ccccc1)NC(=O)[C@@H](NC(=O)CNC(=O)[C@H](CCC(=O)O)NC(=O)CNC(=O)[C@@H](N)Cc1c[nH]cn1)[C@@H](C)O)[C@@H](C)O)C(C)C)C(=O)N[C@@H](C)C(=O)N[C@@H](Cc1c[nH]c2ccccc12)C(=O)N[C@@H](CC(C)C)C(=O)N[C@H](C(=O)N[C@@H](CCCCN)C(=O)NCC(=O)N[C@@H](CCCNC(=N)N)C(=O)N[C@@H](CCCCN)C(=O)N[C@@H](CCCCN)C(=O)N[C@@H](CCCCN)C(=O)N[C@@H](CCCCN)C(=O)N[C@@H](CCCCN)C(=O)N[C@@H](CCCCN)C(N)=O)C(C)C` [Compound 4], the “detected in the plasma samples (rats)” value in the data set “in vivo” (intra duodenal administration of 1.000 nmol/kg) is “two out of four rats”. For the same compound, in “in vivo” (intra duodenal administration of 10.000 nmol/kg), the “detected in the plasma samples (rats)” value is listed as “four out of five rats”. In addition, the half-life in data set [1] (T1/2, α) turned out to be 6.8 min. Further, in data set [1] (T1/2, β), the half-life turned out to be 28 min. The “T½ value relative to the unconjugated peptide” value in data set [1] (Table 5) is listed as “approximately three times”. Further, in the data set “in vitro”, the half-life at 10 µg/ml was found to be 466 min, the “T½ in rat plasma” value was determined as 466.1 min and the “kobs (degradation rate)” value is 0.0015 min⁻¹.
